# Data published in patent US20180050040A1, “USE OF 4-(4-FLUORO-2-METHOXYPHENYL)-N--1,3,5-TRIAZIN-2-AMINE FOR TREATING LYMPHOMAS” (Bayer Pharma Aktiengesellschaft, priority 2015, published 2018).
# Where “and” joins values, the source holds several entries; their conditions need not be identical. Identical values can stand only once.
# Assays:
# ATL tumor cells (S-YU) [1] = assay: ATL cell-bearing NOG mice treated for 21 days, survival times; format: in vivo
# Description: (§1) NOD/Shi-scid, IL-2Rγ^null (NOG) mice were purchased from the Central Institute for Experimental Animals (Kanagawa, Japan) and used at between 6-8 weeks of age.
# ATL cells from intraperitoneal masses suspended in RPMI-1640 were also inoculated i.p. into another 14 naive NOG mice at 1.0×10^7 cells per mouse. These animals were randomly divided into two groups of seven each for treatment with Compound A′ or vehicle. Compound A′ was formulated in the same manner, and mice were treated by oral application of 12.5 mg/kg Compound A′ or vehicle, once daily for 21 days (7-27 days after ATL cell inoculations). The therapeutic efficacy of Compound A′ was evaluated according to survival times.
# (§2) Differences between groups regarding the percentage of ATL cells in mouse liver and bone marrow cell suspensions, and human sIL2R concentrations in mouse sera, were examined using a Mann-Whitney U test. Mouse survival analyses were done by Kaplan-Meier method, and survival curves were compared using the log-rank test. All analyses were performed using SPSS Statistics 17.0 software (SPSS Inc., Chicago, Ill.). In this study, P<0.05 was considered significant.
# S-YU = assay: Cell proliferation assay (CellTiter Glo), S-YU with IL-2; format: cell-based; settings: ATL, after 24 hours of incubation, IL-2 100 IU/mL
# Description: (§3) The proliferation of all lymphoma cell lines, other than S-YU, in the presence of different concentrations of Compound A′ for 72 h was assessed using CellTiter Glo kits (Promega Corporation, Madison, Wis.). Proliferation of S-YU in the presence of recombinant human interleukin-2 (IL-2) at a final concentration of 100 IU/mL, with different concentrations of Compound A′ for 24 h, was assessed in the same manner. All expressed values were averages of triplicate experiments, and IC50 was calculated using GraphPad Prism 5 (GraphPad Software, San Diego, Calif.) according to the manufacturer's instructions or the MTS software.
# MT-1 = assay: Cell proliferation assay (CellTiter Glo); format: cell-based; settings: MT-1, ATL; 72 h
# Description: as §3
# MJ = assay: Cell proliferation assay (CellTiter Glo); format: cell-based; settings: ATL, 72 h
# Description: as §3
# Karpas422 = assay: Cell proliferation assay (CellTiter Glo); format: cell-based; settings: Homo sapiens, KARPAS-422; Karpas422, Follicular lymphoma; 72 h
# Description: as §3
# HT = assay: Cell proliferation assay (CellTiter Glo); format: cell-based; settings: Homo sapiens, DLBCL, GCB subtype, 72 h
# Description: as §3
# TL-SU = assay: Cell proliferation assay (CellTiter Glo); format: cell-based; settings: HTLV-1-immortalized cell line, 72 h
# Description: as §3
# DB = assay: Cell proliferation assay (CellTiter Glo); format: cell-based; settings: Homo sapiens, DLBCL, GCB subtype, 72 h
# Description: as §3
# TL-Om1 = assay: Cell proliferation assay (CellTiter Glo); format: cell-based; settings: TL-Om1, ATL; 72 h
# Description: as §3
# Jeko-1 = assay: Cell proliferation assay (CellTiter Glo); format: cell-based; settings: Homo sapiens; Jeko-1, Mantle cell lymphoma; 72 h
# Description: as §3
# OCI-LY-3 = assay: Cell proliferation assay (CellTiter Glo); format: cell-based; settings: Homo sapiens, OCI-Ly3; OCI-LY-3, DLBCL, ABC subtype; 72 h
# Description: as §3
# SU-DHL-8 = assay: Cell proliferation assay (CellTiter Glo); format: cell-based; settings: Homo sapiens; SU-DHL-8, DLBCL, GCB subtype; 72 h
# Description: as §3
# KM-H2 = assay: Cell proliferation assay (CellTiter Glo); format: cell-based; settings: Homo sapiens; KM-H2, Hodgkin lymphoma; 72 h
# Description: as §3
# OCI-LY-19 = assay: Cell proliferation assay (CellTiter Glo); format: cell-based; settings: Homo sapiens, OCI-LY19; OCI-LY-19, DLBCL, GCB subtype; 72 h
# Description: as §3
# Ramos = assay: Cell proliferation assay (CellTiter Glo); format: cell-based; settings: Homo sapiens, Burkitt's lymphoma, 72 h
# Description: as §3
# SU-DHL-6 = assay: Cell proliferation assay (CellTiter Glo); format: cell-based; settings: Homo sapiens; SU-DHL-6, DLBCL, GCB subtype; 72 h
# Description: as §3
# ATN-1 = assay: Cell proliferation assay (CellTiter Glo); format: cell-based; settings: Homo sapiens; ATN-1, ATL; 72 h
# Description: as §3
# MT-2 = assay: Cell proliferation assay (CellTiter Glo); format: cell-based; settings: Homo sapiens, MT2; MT-2, HTLV-1-immortalized cell line; 72 h
# Description: as §3
# SU-DHL-4 = assay: Cell proliferation assay (CellTiter Glo); format: cell-based; settings: Homo sapiens; SU-DHL-4, DLBCL, GCB subtype; 72 h
# Description: as §3
# HBL1 = assay: Cell proliferation assay (CellTiter Glo); format: cell-based; settings: HBL1, DLBCL, ABC subtype; 72 h
# Description: as §3
# MT-4 = assay: Cell proliferation assay (CellTiter Glo); format: cell-based; settings: Homo sapiens, MT4; MT-4, HTLV-1-immortalized cell line; 72 h
# Description: as §3
# SU-DHL-10 = assay: Cell proliferation assay (CellTiter Glo); format: cell-based; settings: Homo sapiens, SU-DHL10; SU-DHL-10, DLBCL, GCB subtype; 72 h
# Description: as §3
# [2] = test system: DLBCL OCI-LY-7 xenografts; assay: In vivo efficacy and tolerability in DLBCL OCI-LY-7 tumour model subcutaneously implanted in NOG mice; settings: 25 mg/kg/day p.o.
# Description: The aim of the present experiments was to assess the in vivo efficacy and tolerability of Compound A′ in monotherapy in the DLBCL OCI-LY-7 tumour model subcutaneously implanted in NOG mice.
# In vivo efficacy was determined in female NOG mice bearing subcutaneous DLBCL OCI-LY-7 xenografts. Compound A′ was assessed at one dose level in monotherapy. Anti-tumour activity and tolerability of the treated group was assessed using the vehicle control group as a reference.
# Mouse strain, sex: NOG, female Animals supplied by: Taconic, Denmark Approximate age at implantation: 5-7 weeks
# DLBCL tumour fragments, derived from the OCI-LY-7 cell line, were obtained from xenografts in serial passage in nude mice and placed in PBS containing 10% penicillin/streptomycin. Tumour fragments (one fragment per animal; 3-4 mm edge length) were then subcutaneously implanted in the flank of NOG recipient mice under isofluorane anaesthesia.
# At randomisation, the volume of growing tumours was initially determined. […] The result of the randomisation was documented and maintained with the experimental data. Animals not randomised were euthanised. The day of randomisation is designated as day 0 of an experiment.
# Vehicle: 80% (m/V) PEC400 in water for injection Compound A′: preparation of a dosing solution (2.5 mg/ml) once weekly by diluting the Compound A′ powder at 0.25% (w/v) in vehicle; storage of the dosing solution at 4° C.; dosing volume 10 ml/kg
# Mortality checks were conducted daily during routine monitoring.
# Mice were weighed twice a week. Relative body weights of individual mice in % were calculated by dividing the individual body weight on day X (BWX) by the individual body weight on day 0 (BW0) multiplied by 100 according to the formula: […]
# Group median relative body weights were calculated as well, considering only the weights of mice that were alive on the day in question.
# The tumour volumes were determined by two-dimensional measurement with a caliper on the day of randomisation (day 0) and then twice weekly (i.e. on the same days on which mice were weighed). Tumour volumes were calculated according to the formulas:
# Tumour volume=(a×b^2)×0.5
# Relative volumes of individual tumours (RTVs) for Day x were calculated by dividing the absolute individual tumour volume on Day x (Tx) by the absolute individual tumour volume of the same tumour on Day 0 (T0) multiplied by 100%:
# Anti-tumour activity was evaluated as maximum tumour volume inhibition versus the vehicle control group.
# Tumour inhibition for a particular day (T/C in %) was calculated from the ratio of the median RTV values of test versus control groups multiplied by 100.
# The minimum (or optimum) T/C % value recorded for a particular test group during an experiment represents the maximum anti-tumour activity for the respective treatment. T/C values were calculated if at least 50% of the randomised animals in a group were alive on the day in question.
# Group optimum T/C values (in %) were used for activity rating as follows: […]
# ATL tumor cells (S-YU) [3] = assay: ATL cell-bearing NOG mice treated for 18 days, efficacy evaluated 25 days after inoculation; format: in vivo; settings: 12.5 mg/kg p.o. once daily 18 days
# Description: as §1
# A leukemic cell clone from a patient with ATL, which could be serially transplanted into SCID mice and was designated S-YU as reported previously (Eur J Haematol. 2014; 92(3):219-228), was injected intraperitoneally (i.p.) into NOG mice. Three to four weeks after i.p. injection, NOG mice developed intraperitoneal masses within the mesentery. Cells from these intraperitoneal masses were suspended in RPMI-1640 and inoculated i.p. into healthy NOG mice, which then presented with disease features identical to those of the original mice. ATL tumor cells (S-YU) from the intraperitoneal masses were suspended in RPMI-1640, and 1.0×10^7 cells were inoculated i.p. into each of 16 naive NOG mice. The animals were randomly divided into two groups of eight each for treatment with Compound A′ or vehicle, seven days after ATL cell inoculations. Compound A′ was formulated in 40% PEG400 in water at a final concentration of 2.5 mg/mL. Mice were treated by oral application of 12.5 mg/kg Compound A′ (0.25 mg/100 μL per mouse) or vehicle (100 μL), once daily for 18 days (7-24 days after ATL cell inoculations). Therapeutic efficacy was then evaluated 25 days after ATL cell inoculations.
# The concentration of human soluble IL-2 receptor (sIL2R) in mouse serum was measured by enzyme-linked immunosorbent assay (ELISA) using a human sIL2R immunoassay kit (R&D Systems, Minneapolis, Minn.) according to the manufacturer's instructions. All expressed values were averages of triplicate experiments.
# as §2
# [4] = OCI-LY-7 xenograft-bearing NOG mice, days 0-27
# [5] = individual treated NOG mice 1-8, 25 days after inoculation, 12.5 mg/kg
smiles,measurement,setting,value
"COc1cc(F)ccc1-c1ncnc(Nc2cccc(CS(C)(=N)=O)c2)n1 (single isomer, unassigned; (+)) [Compound A′, (+)-4-(4-Fluoro-2-methoxyphenyl)-N-{3-[(S-methylsulfonimidoyl)methyl]phenyl}-1,3,5-triazin-2-amine]",Toxicity attributable to compound,"ATL tumor cells (S-YU) [1]; ATL cell-bearing NOG mice, 12.5 mg/kg p.o. once daily, during the study period",not observed
same,survival of ATL cell-bearing mice,"ATL tumor cells (S-YU) [1]; thirty-eight days after ATL cell inoculation, 12.5 mg/kg p.o. once daily 21 days, n=7",all alive
same,IC50,S-YU,2960 nM
same,IC50,MT-1,1200 nM
same,IC50,MJ,540 nM
same,IC50,Karpas422,660 nM
same,IC50,HT,710 nM
same,IC50,TL-SU,2130 nM
same,IC50,DB,570 nM
same,IC50,TL-Om1,790 nM
same,IC50,Jeko-1,740 nM
same,IC50,OCI-LY-3,340 nM
same,IC50,SU-DHL-8,610 nM
same,IC50,KM-H2,2200 nM
same,IC50,OCI-LY-19,480 nM
same,IC50,Ramos,1100 nM
same,IC50,SU-DHL-6,360 nM
same,IC50,ATN-1,440 nM
same,IC50,MT-2,520 nM
same,IC50,SU-DHL-4,170 nM
same,IC50,HBL1,540 nM
same,IC50,MT-4,1410 nM
same,IC50,SU-DHL-10,600 nM
same,OCI-LY-7 tumour growth compared to vehicle control group,[2]; Mann-Whitney-Wilcoxon U-test,significantly reduced
same,Activity Rating,"[2]; OCI-LY-7 in NOG mice, days 0-27",++++ (Complete remission T/C < 5%)
same,Min. T/C [%] (Day),"[2]; OCI-LY-7 in NOG mice, days 0-27, minimum on day 19, 25 mg/kg/day",2.6% and 2.6 (19) %
same,Survival rate,[2]; [4],80%
same,median BWL (body weight loss),[2]; [4],17.9%
same,tolerability profile,[2]; lymphoma xenograft bearing mice,acceptable tolerability profile
same,"percentage of ATL cells (human CD45-positive, CD4-positive, CD8-negative) in bone marrow cell suspension",ATL tumor cells (S-YU) [3]; [5],0.01% (4×) and 0.02% (2×) and 0.72% and < 0.01%
same,"percentage of ATL cells (human CD45-positive, CD4-positive, CD8-negative) in liver cell suspension",ATL tumor cells (S-YU) [3]; [5],0.9% and 1.6% and 1.0% and 0.4% and 2.2% and 1.1% and 0.6% and 0.5%
same,"concentration of human sIL2R in serum, mean","ATL tumor cells (S-YU) [3]; treated NOG mice 1-8, ELISA",84500 pg/mL
same,"concentration of human sIL2R in serum, median","ATL tumor cells (S-YU) [3]; treated NOG mice 1-8, ELISA",84900 pg/mL
same,"concentration of human sIL2R in serum, range","ATL tumor cells (S-YU) [3]; treated NOG mice 1-8, ELISA",69.0-97.4 ×10^3 pg/mL
